The record followed here is patent US8314092B2, “Substituted [(5H-pyrrolo[2,1-c][1,4]benzodiazepin-11-yl)piperazin-1-yl]-2,2-dimethylpropanoic acid compounds as dual activity H1 inverse agonists/5-HT2A antagonists” (Eli Lilly and Company, priority 2011, dated 2012).

Molecules are shown by their SMILES. Counter-ions that a name gives are not always drawn.

For data set [1], the target named is T1, recombinant 5-HT2A receptor (human) (Homo sapiens, UniProt P28223).
T1 construct: expressed in transfected cells
As to the kind of experiment: 5-HT2A competition binding assay ([3H]-Ketanserin SPA). On the procedure: [^3H]-Ketanserin binding experiments are carried out in SPA 96-well format. Membranes used in this assay are prepared from AV-12 cells stably expressing recombinant 5-HT2A receptor (human). The incubation is initiated by the addition of a mixture of WGA YSi SPA beads (1 mg/well, Perkin Elmer (MA, USA), RPNQ0011) and 2 μg membranes to assay buffer (67 mM Tris, 0.5 mM EDTA; pH 7.6) containing 3.1 nM [^3H]-Ketanserin and varying concentrations of the test compound (10 point concentration response curves). Non-specific binding is determined in the presence of 20 μM 1-(1-Naphthyl)piperazine. Samples were incubated for four hours at room temperature (22° C.) and then read in a Microbeta Trilux.
(§1) Curves are evaluated using a 4-parameter logistic nonlinear equation to obtain the concentration of competitor causing 50% inhibition of radioligand binding (IC50). Equilibrium dissociation constants (Ki) are calculated according to the equation Ki=IC50/(1+L/Kd), where L equals the concentration of radioligand used in the experiment and Kd equals the equilibrium dissociation constant of the radioligand for the receptor, determined from standard saturation analysis or homologous competition experiments. Reported values for Ki, where n values are indicated, are shown as geometric mean±the standard error of the mean (SEM), with the number of replicate determinations indicated by n. […]

Data set [2] has as its target T2, recombinant 5-HT2c receptor (human) (Homo sapiens, UniProt P28335).
T2 construct: expressed in transfected cells
As to the kind of experiment: 5-HT2c competition binding assay ([125I]-DOI SPA). On the procedure:
[^125I]-(±)DOI binding experiments are carried out in SPA 96-well format. Membranes used in this assay are prepared from AV-12 cells stably expressing recombinant 5-HT2c receptor (human). The incubation is initiated by the addition of a mixture of WGA PVT SPA beads (0.5 mg/well, Perkin Elmer (MA, USA), RPNQ0001) and 2.5 μg membranes to assay buffer (50 mM Tris-HCl, 10 mM MgCl2, 0.5 mM EDTA, 10 μM pargyline, 0.1% ascorbic acid, pH7.4) containing 0.2 nM [[^125I]-(±)DOI and varying concentrations of the test compound (10 point concentration response curves). Non-specific binding is determined in the presence of 20 μM 1-(1-Naphthyl)piperazine. Samples are incubated for four hours at room temperature (22° C.) and then read in a Microbeta Trilux.
Curves are evaluated using a 4-parameter logistic nonlinear equation to obtain the concentration of competitor causing 50% inhibition of radioligand binding (IC50). Equilibrium dissociation constants (Ki) are calculated according to the equation Ki=IC50/(1+L/Kd), where L equals the concentration of radioligand used in the experiment and Kd equals the equilibrium dissociation constant of the radioligand for the receptor, determined from standard saturation analysis or homologous competition experiments. […]

Another data set has as its target hERG channel (Homo sapiens, UniProt Q12809). The data set can be described thus: hERG channel assay. From the text: (§2) Further, the compounds of the invention may be tested in binding assays and functional activity assays by well known methods for other physiologically important receptors such as, but not limited to, the hERG channel, other serotonin receptors (specifically 5-HT1A, 5-HT1B, 5-HT1D, 5-HT1E, 5-HT1F receptors, lack of agonist activity at 5-HT2B receptors, 5-HT2C, 5-HT4, 5-HTS, 5-HT6, and 5-HT7 receptors), muscarinic receptors, dopaminergic receptors (specifically D1, D2, and D3), GABAA receptors, adrenergic receptors and monoamine transporters. Certain exemplified compounds are tested at these receptors and are shown to lack significant activity.
For orientation: The hERG channel carries a current that helps repolarise heart muscle cells.

In another data set the target is Dopamine D1 (Homo sapiens, UniProt P21728). As to the kind of experiment: Dopamine D1 binding.
From the text: as §2

The target in the next data set is Dopamine D2 (Homo sapiens, UniProt P14416). The data set can be described thus: Dopamine D2 binding.
From the text: as §2

The target in the next data set is Dopamine D3 (Homo sapiens, UniProt P35462). The data set can be described thus: Dopamine D3 binding.
From the text: as §2

For a further data set, the target named is 5-HT1A (Homo sapiens, UniProt P08908). The data set can be described thus: 5-HT1A binding.
From the text: as §2

The target of another data set is 5-HT1B (Homo sapiens, UniProt P28222). The data set can be described thus: 5-HT1B binding.
From the text: as §2

The target in a further data set is 5-HT1D (Homo sapiens, UniProt P28221). As to the kind of experiment: 5-HT1D binding.
From the text: as §2

In a further data set the target is 5-HT5 (Homo sapiens, UniProt P47898). As to the kind of experiment: 5-HT5 binding.
From the text: as §2

Another data set has as its target 5-HT6 (Homo sapiens, UniProt P50406). The data set can be described thus: 5-HT6 binding.
From the text: as §2

A further data set addresses 5-HT7 (Homo sapiens, UniProt P34969). As to the kind of experiment: 5-HT7 binding.
From the text: as §2

A further data set deals with Adrenergic alpha1A (Homo sapiens, UniProt P35348). As to the kind of experiment: Adrenergic alpha1A binding.
From the text: as §2

The target in a further data set is Adrenergic alpha1B (Homo sapiens, UniProt P35368). The data set can be described thus: Adrenergic alpha1B binding.
From the text: as §2

Another data set addresses Adrenergic alpha2A (Homo sapiens, UniProt P08913). As to the kind of experiment: Adrenergic alpha2A binding.
From the text: as §2

Another data set addresses Adrenergic alpha2B (Homo sapiens, UniProt P18089). As to the kind of experiment: Adrenergic alpha2B binding.
From the text: as §2

Another data set concerns the target Adrenergic alpha2C (Homo sapiens, UniProt P18825). The data set can be described thus: Adrenergic alpha2C binding.
From the text: as §2

For the next data set, the target named is Serotonin Transporter (Homo sapiens, UniProt P31645). The data set can be described thus: Serotonin transporter assay. The class given is binding.
From the text: as §2

The next data set deals with Norepinephrine Transport (Homo sapiens, UniProt P23975). The data set can be described thus: Norepinephrine transporter assay. The class given is binding.
From the text: as §2

The target in the next data set is Dopamine Transporter (Homo sapiens, UniProt Q01959). As to the kind of experiment: Dopamine transporter assay. The class given is binding.
From the text: as §2

For data set [3], the target named is human recombinant H1 receptor (Homo sapiens, UniProt P35367). As to the kind of experiment: H1 competition binding assay ([3H]-Pyrilamine SPA). More on the design: expressed in transfected cells. On the procedure: [^3H]-Pyrilamine binding experiments are carried out in SPA (scintillation proximity assay) 96-well format. Membranes used in this assay are prepared from HEK-293 cells stably expressing recombinant H1 receptor (human). The incubation is initiated by the addition of a mixture of WGA PVT SPA beads (1 mg/well, Perkin Elmer (MA, USA) RPNQ0001) and 3 μg membranes to assay buffer (67 mM Tris; pH 7.6) containing 3.5 nM [^3H]-Pyrilamine and varying concentrations of the test compound (10 point concentration response curves). Non-specific binding is determined in the presence of 10 μM Triprolidine. Samples are incubated for four hours at room temperature (22° C.) and then read in a Microbeta Trilux.
as §1

For another data set, the system named is Wistar rats. The data set can be described thus: Sleep and behavioral monitoring in rats (EEG, EMG, motion). The class given is in vivo. Particulars: rat, 3 mg/kg. How it is done: Sleep and behavioral monitoring in rats: Representative compounds of the present invention are tested in rats for their ability to increase the amount of sleep or decrease sleep interruption or both without undesired effects such as inhibition of REM sleep, waking motor impairment, and/or rebound insomnia. Test animals are continuously monitored by electro-encephalograms (EEG), electromyograms (EMG), and motion to measure cumulative nonREM sleep, cumulative total sleep, average sleep bout duration, longest sleep bout duration, rebound insomnia, REM sleep inhibition and locomotor activity intensity during wakefulness. Methods for such studies are known in the art (see for example methods described in Edgar D M, Seidel W F. Modafinil induces wakefulness without intensifying motor activity or subsequent rebound hypersomnolence in the rat. J Pharmacology & Experimental Therapeutics 1997; 283: 757-769; van Gelder R N, Edgar D M, Dement W C. Real-time automated sleep scoring: validation of a microcomputer-based system for mice. Sleep 1991, 14: 48-55; and Gross B A, Walsh C M, Turakhia A A, Booth V, Mashour G A, Poe G R. Open-source logic-based automated sleep scoring software using electrophysiological recordings in rats. J Neurosci Methods. 2009; 184(1):10-8.) Studies are conducted as follows: Animal preparation. Adult, male Wistar rats (approximately 270-300 g at time of surgery) are surgically fitted for chronic recording of EEG, EMG, and motion as follows: Rats are surgically prepared with a cranial implant consisting of four stainless steel screws for EEG recording (two frontal [3.9 mm anterior from bregma, and ±2.0 mm mediolaterally] and two occipital [6.4 mm posterior from bregma, ±5.5 mm mediolaterally]), and with two Teflon-coated stainless steel wires for EMG recording (positioned under the nuchal trapezoid muscles). All leads are soldered to a miniature connector (Microtech, Boothwyn, Pa.) prior to surgery. The implant assembly is affixed to the skull by the combination of the stainless steel EEG recording screws, cyanoacrylate applied between the implant connector and skull, and dental acrylic. Locomotor activity is monitored via a miniature transmitter (Minimitter PDT4000G, Philips Respironics, Bend, Oreg.) surgically placed into the abdomen. At least 3 weeks are allowed for recovery. Recording environment. Each rat is housed individually within a microisolator cage modified with an inserted polycarbonate filter-top riser to allow more vertical headroom. A flexible cable that minimally restricts movement is connected at one end to a commutator affixed to the cage top and at the other end to the animal's cranial implant. Each cage is located within separate, ventilated compartments of a stainless steel sleep-wake recording chamber. Food and water are available ad libitum and the ambient temperature is maintained at about 23±1° C. A 24-hr. light-dark cycle (LD 12:12) using fluorescent light is maintained throughout the study. Relative humidity averages approximately 50%. Animals are undisturbed for at least 30 hrs before and after each treatment. Study design and dosing. The vehicle (placebo, methylcellulose 15 centipoise 0.25% in water) or one of the test compound dose levels is administered orally at 1 mL/kg pseudo-randomly such that no rat receives the same treatment twice, and no rat receives more than two of the 8 treatments in any one study. Each rat is removed from its cage for about a minute to be weighed and treated. At least 6 days “washout” period precede and follow each treatment. Data collection. […]

Sequence of 5-HT1B (P28222 whole entry, species assumed): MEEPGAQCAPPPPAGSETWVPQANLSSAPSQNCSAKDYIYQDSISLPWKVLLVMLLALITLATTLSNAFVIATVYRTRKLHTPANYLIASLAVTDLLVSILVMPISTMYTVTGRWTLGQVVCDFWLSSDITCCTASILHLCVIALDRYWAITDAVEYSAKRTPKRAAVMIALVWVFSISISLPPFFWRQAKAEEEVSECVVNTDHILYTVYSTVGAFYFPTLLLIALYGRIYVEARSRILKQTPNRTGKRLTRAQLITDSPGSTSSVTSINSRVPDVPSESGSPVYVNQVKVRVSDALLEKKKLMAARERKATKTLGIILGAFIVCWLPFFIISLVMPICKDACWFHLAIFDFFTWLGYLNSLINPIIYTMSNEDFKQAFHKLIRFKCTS
Sequence of Dopamine D2 (P14416 whole entry): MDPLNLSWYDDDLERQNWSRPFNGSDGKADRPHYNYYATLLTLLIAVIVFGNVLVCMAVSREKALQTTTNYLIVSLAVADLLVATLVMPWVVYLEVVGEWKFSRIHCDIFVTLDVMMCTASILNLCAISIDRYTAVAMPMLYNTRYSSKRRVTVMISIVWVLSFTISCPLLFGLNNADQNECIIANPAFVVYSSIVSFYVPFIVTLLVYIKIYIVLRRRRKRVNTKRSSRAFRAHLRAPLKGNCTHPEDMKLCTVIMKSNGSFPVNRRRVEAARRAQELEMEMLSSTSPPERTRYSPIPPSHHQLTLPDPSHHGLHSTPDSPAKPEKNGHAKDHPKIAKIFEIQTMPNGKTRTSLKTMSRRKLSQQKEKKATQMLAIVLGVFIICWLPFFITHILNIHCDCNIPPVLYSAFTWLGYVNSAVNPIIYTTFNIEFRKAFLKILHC
Sequence of hERG channel (Q12809 whole entry): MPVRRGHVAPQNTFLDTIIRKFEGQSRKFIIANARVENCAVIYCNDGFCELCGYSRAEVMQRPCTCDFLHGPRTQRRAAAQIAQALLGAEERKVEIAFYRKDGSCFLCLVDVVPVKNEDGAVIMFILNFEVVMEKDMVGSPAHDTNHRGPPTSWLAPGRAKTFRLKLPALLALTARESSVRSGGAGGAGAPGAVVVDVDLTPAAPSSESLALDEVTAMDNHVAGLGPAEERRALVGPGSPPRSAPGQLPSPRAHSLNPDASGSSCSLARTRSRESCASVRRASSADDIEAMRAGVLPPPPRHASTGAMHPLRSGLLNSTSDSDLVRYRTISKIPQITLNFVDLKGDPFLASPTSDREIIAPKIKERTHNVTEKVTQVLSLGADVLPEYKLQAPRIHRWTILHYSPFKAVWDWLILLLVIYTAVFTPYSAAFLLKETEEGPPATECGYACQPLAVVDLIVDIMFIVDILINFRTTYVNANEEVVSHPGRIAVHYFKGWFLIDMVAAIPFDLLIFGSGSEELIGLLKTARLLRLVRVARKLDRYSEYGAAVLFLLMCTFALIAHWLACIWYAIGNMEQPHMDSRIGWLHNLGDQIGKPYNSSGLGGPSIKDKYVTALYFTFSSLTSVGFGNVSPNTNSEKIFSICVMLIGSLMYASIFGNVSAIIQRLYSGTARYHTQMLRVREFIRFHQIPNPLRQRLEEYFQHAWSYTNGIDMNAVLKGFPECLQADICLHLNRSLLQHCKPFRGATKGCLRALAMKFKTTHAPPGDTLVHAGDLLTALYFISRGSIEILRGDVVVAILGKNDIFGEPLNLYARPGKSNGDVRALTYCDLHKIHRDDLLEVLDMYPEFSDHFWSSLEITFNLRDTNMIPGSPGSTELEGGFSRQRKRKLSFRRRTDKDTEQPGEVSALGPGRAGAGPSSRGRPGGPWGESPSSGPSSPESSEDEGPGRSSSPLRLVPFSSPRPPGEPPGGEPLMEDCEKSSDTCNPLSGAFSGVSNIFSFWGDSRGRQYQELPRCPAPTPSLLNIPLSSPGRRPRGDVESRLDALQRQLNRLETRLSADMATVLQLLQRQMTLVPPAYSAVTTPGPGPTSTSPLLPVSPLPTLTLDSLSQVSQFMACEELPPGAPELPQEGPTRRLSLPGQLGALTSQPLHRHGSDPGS
Sequence of Dopamine Transporter (Q01959 whole entry): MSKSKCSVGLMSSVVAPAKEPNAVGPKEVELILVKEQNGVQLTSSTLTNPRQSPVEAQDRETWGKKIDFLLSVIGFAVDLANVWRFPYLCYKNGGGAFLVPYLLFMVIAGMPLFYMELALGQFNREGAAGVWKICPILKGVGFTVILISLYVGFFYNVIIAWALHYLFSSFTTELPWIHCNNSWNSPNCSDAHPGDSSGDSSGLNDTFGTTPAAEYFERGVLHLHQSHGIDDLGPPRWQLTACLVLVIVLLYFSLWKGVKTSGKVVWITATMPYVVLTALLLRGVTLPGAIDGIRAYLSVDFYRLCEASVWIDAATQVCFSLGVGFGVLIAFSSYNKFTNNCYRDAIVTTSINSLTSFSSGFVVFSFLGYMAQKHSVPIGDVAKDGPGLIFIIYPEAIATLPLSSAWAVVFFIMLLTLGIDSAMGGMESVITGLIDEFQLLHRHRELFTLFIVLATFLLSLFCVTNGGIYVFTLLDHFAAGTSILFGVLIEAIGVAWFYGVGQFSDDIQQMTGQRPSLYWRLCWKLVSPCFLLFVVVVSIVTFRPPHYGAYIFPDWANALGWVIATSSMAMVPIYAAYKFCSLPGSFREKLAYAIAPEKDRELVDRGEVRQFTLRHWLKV
Sequence of Adrenergic alpha2C (P18825 whole entry): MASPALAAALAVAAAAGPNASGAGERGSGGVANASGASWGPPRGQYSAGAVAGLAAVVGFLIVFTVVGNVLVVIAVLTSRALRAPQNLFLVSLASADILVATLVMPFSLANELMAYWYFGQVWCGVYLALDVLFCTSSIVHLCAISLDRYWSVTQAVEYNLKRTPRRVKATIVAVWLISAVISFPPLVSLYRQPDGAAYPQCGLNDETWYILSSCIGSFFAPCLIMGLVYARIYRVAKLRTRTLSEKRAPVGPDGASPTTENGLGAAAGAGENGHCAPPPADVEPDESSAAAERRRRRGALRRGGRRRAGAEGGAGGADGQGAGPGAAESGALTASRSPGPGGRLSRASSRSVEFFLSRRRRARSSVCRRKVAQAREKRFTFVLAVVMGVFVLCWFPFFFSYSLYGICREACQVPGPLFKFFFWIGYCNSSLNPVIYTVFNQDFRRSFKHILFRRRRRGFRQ
Sequence of 5-HT5 (P47898 whole entry, species assumed): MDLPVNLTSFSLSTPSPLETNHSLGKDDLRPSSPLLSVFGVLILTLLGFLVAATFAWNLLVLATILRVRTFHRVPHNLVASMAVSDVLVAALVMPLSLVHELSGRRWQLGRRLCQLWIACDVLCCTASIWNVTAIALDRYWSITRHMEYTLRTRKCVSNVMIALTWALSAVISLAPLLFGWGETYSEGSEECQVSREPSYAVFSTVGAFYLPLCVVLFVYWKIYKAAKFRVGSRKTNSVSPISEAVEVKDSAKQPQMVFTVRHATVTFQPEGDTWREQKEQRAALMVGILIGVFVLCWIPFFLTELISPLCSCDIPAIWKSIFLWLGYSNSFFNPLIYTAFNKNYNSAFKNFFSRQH
Sequence of Serotonin Transporter (P31645 whole entry): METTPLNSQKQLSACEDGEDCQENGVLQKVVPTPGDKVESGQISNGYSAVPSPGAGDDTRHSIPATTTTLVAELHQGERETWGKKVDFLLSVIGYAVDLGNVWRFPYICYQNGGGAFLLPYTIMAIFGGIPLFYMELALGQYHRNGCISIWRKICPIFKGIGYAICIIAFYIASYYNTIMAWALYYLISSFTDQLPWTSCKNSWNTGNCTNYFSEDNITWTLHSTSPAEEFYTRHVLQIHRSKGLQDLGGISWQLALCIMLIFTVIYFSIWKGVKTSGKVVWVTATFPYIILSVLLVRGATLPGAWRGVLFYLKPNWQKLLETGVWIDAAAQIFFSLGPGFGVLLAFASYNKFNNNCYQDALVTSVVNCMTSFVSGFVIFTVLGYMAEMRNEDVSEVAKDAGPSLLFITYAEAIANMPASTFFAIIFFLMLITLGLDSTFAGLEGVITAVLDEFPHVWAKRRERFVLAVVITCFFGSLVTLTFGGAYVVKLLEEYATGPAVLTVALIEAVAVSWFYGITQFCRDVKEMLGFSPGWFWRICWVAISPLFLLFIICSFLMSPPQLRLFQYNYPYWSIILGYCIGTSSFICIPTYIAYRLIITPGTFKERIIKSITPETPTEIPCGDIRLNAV
Sequence of Norepinephrine Transport (P23975 whole entry): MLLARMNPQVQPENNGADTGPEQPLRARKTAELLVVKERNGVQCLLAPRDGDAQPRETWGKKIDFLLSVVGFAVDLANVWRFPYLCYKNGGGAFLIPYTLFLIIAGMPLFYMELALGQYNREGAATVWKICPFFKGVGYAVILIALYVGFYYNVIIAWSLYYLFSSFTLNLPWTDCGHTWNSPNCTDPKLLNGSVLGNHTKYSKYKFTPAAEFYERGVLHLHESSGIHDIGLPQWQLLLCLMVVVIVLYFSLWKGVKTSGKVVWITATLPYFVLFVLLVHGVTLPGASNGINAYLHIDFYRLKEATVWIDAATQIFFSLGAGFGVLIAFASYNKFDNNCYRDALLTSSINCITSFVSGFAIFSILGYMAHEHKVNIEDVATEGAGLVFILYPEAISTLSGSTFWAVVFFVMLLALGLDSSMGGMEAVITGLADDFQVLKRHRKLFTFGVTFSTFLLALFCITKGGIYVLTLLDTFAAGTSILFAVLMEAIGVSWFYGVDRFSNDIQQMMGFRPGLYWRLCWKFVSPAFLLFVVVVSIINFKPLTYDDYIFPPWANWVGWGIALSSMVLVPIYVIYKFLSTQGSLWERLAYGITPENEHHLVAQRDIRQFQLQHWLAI

Regarding `Cc1cc2n(c1)Cc1cc(Cl)ccc1N=C2N1CCN(CC(C)(C)C(=O)O)CC1` [Example 1, 3-[4-(7-chloro-2-methyl-5H-pyrrolo[2,1-c][1,4]benzodiazepin-11-yl)piperazin-1-yl]-2,2-dimethylpropanoic acid], the Ki was 0.0575 µM in [1]; 3.81 µM in data set [2]; 3.79 µM at Dopamine D1; above 4.5 µM on Dopamine D2; above 5.68 µM at Dopamine D3; above 6.94 µM on 5-HT1A. The Ki at 5-HT1B is above 5.58 µM; on 5-HT1D, above 3.98 µM; at 5-HT5, above 8.83 µM; at 5-HT6, 2.69 µM; at 5-HT7 it was above 2.06 µM; on Adrenergic alpha1A it was above 8.91 µM. The Ki is above 10.9 µM at Adrenergic alpha1B; above 9.03 µM at Adrenergic alpha2A; above 4.98 µM at Adrenergic alpha2B; above 4.02 µM on Adrenergic alpha2C; 0.0273 µM in [3]. Moreover, the “hERG Channel” value on hERG channel was above 100 µM. Also, the “Serotonin Transporter” value at Serotonin Transporter is above 641. At Norepinephrine Transport, the “Norepinephrine Transport” value was above 682. Further, the “Dopamine Transporter” value at Dopamine Transporter is given as above 879.

`CC(C)(CN1CCN(C2=Nc3ccc(Cl)cc3Cn3cc(Br)cc32)CC1)C(=O)O` [Example 15, 3-[4-(2-Bromo-7-chloro-5H-pyrrolo[2,1-c][1,4]benzodiazepin-11-yl)piperazin-1-yl]-2,2-dimethylpropanoic acid dihydrochloride]: in the data set on Wistar rats, the “REM sleep inhibition (in words)” value is recorded as “without significant”, the “cumulative NREM sleep time (in words)” value was “significantly increase”, the “cumulative total sleep time (in words)” value is listed as “significantly increase” and the “inhibition of locomotor intensity (LMI) (in words)” value (“inhibition of locomotor intensity” for short) is reported as “without significant”. Also, the “rebound insomnia (in words)” value in the data set with Wistar rats is “without significant”.

For the compound `CCc1cc2n(c1)Cc1cc(Cl)ccc1N=C2N1CCN(CC(C)(C)C(=O)O)CC1` [Example 16, 3-[4-(7-Chloro-2-ethyl-5H-pyrrolo[2,1-c][1,4]benzodiazepin-11-yl)piperazin-1-yl]-2,2-dimethylpropanoic acid dihydrochloride], in the data set with Wistar rats, the “REM sleep inhibition (in words)” value is “without significant”, the “cumulative NREM sleep time (in words)” value is given as “significantly increase”, the “cumulative total sleep time (in words)” value is “significantly increase” and the “inhibition of locomotor intensity” value was “without significant”. Besides, the “rebound insomnia (in words)” value in the data set with Wistar rats was “without significant”.

As to `CC(C)(CN1CCN(C2=Nc3ccc(Cl)cc3Cn3cc(C(F)(F)F)cc32)CC1)C(=O)O` [Example 18, 3-{4-[7-Chloro-2-(trifluoromethyl)-5H-pyrrolo[2,1-c][1,4]benzodiazepin-11-yl]piperazin-1-yl}-2,2-dimethylpropanoic acid dihydrochloride], in the data set with Wistar rats, the “REM sleep inhibition (in words)” value is recorded as “without significant”, the “cumulative NREM sleep time (in words)” value is on record as “significantly increase”, the “cumulative total sleep time (in words)” value is given as “significantly increase” and the “inhibition of locomotor intensity” value is listed as “without significant”. Besides, in the data set on Wistar rats, the “rebound insomnia (in words)” value is listed as “without significant”.

For the compound `CC(C)(CN1CCN(C2=Nc3ccc(Cl)cc3Cn3cc(Cl)cc32)CC1)C(=O)O` [Example 19, 3-[4-(2,7-Dichloro-5H-pyrrolo[2,1-c][1,4]benzodiazepin-11-yl)piperazin-1-yl]-2,2-dimethylpropanoic acid dihydrochloride], in the data set with Wistar rats, the “REM sleep inhibition (in words)” value is listed as “without significant”, the “cumulative NREM sleep time (in words)” value is “significantly increase”, the “cumulative total sleep time (in words)” value is on record as “significantly increase” and the “inhibition of locomotor intensity” value is given as “without significant”. The “rebound insomnia (in words)” value with Wistar rats is on record as “without significant”.

Broadly, the Ki is a dissociation constant, usually derived from enzyme kinetics or from competition with a known ligand.
